Assay results published in patent publication US20230399312A1, “SUBSTITUTED PYRIMIDINES AND METHODS OF USE” (THERAVANCE BIOPHARMA R&D IP, LLC, priority 2020, published 2023).

Legend:
[1] = target: T1, recombinant human ALK5 (TGF-βR1) protein (Homo sapiens, UniProt P36897); test: Biochemical ALK5 (TGF-βR1) assay to measure pKi (LANCE Ultra ULight kinase assay); conditions: apparent pKi, converted from pIC50 by Cheng-Prusoff
T1 construct: purchased Life Technologies PR9075A
T1 sequence (P36897 34-503): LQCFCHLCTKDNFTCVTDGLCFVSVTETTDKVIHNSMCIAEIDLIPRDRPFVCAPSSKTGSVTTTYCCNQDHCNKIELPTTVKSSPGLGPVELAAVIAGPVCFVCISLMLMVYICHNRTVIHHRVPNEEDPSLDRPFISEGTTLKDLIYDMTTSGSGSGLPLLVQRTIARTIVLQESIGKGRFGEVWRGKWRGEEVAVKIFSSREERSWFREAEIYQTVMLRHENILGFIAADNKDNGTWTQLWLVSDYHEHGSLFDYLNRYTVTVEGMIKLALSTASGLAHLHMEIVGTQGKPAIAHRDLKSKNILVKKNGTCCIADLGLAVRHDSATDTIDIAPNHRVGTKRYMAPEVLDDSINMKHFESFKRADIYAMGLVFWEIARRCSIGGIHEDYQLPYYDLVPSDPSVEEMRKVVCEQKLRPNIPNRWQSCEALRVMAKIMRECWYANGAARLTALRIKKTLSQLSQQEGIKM
How it was run: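 Europium TR-FRET kinase assay: the enzyme is exposed to compound for 60 min at room temperature, and reaction with ATP runs 60 min at 37 °C. Percent inhibition relative to DMSO and SD-208 controls gives pIC50, which is converted to pKi.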

[2] = system: TGF-β-stimulated SMAD3 phosphorylation in BEAS-2B cells; test: Cellular ALK5 potency assay, inhibition of TGF-β stimulated pSMAD3 formation in BEAS-2B cells; type: cell-based; conditions: Homo sapiens, pSMAD3, TGF-β 10 ng/mL, read-out: BEAS2B pIC50 (converted)
How it was run: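 Human lung epithelial BEAS-2B cells were pre-treated with compound for 1 h at 37 °C, then stimulated with TGF-β (final 10 ng/mL) for 30 min before lysis. pSMAD3 was quantified by AlphaLISA and pIC50 derived from dose-dependent signal change versus TGF-β-stimulated untreated cells.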

Compound | Ki [1] | IC50 [2]
Cc1cccc(-c2nc(Nc3ccnc(Nc4ccc(N5CCOCC5)cc4)n3)c3nn[nH]c3n2)n1 [Compound 340, N4-[5-(6-methyl-2-pyridyl)-3H-triazolo[4,5-d]pyrimidin-7-yl]-N2-(4-morpholinophenyl)pyrimidine-2,4-diamine] | 0.0398 to 0.316 nM | 200 to 1260 nM
Cc1cccc(-c2nccc(Nc3ccnc(Nc4ccc(CN5CCC[C@@H](C(=O)O[C@@H]6CCN(C)C6)C5)cc4)n3)n2)n1 [Compound 341, [(3R)-1-methylpyrrolidin-3-yl] (3R)-1-[[4-[[4-[[2-(6-methyl-2-pyridyl)pyrimidin-4-yl]amino]pyrimidin-2-yl]amino]phenyl]methyl] piperidine-3-carboxylate] | 0.0398 to 0.316 nM | 25.1 to 158 nM
Cc1cccc(-c2nccc(Nc3ccnc(Nc4ccc(NC[C@@H]5CCCN5)cc4)n3)n2)n1 [Compound 342, N4-[2-(6-methyl-2-pyridyl)pyrimidin-4-yl]-N2-[4-[[(2S)-pyrrolidin-2-yl]methylamino]phenyl] pyrimidine-2,4-diamine] | 0.0398 to 0.316 nM | 25.1 to 158 nM
Cc1cccc(-c2nccc(Nc3ccnc(Nc4ccc(N5CCC(N)CC5)c(F)c4)n3)n2)n1 [Compound 343, N2-[4-(4-amino-1-piperidyl)-3-fluoro-phenyl]-N4-[2-(6-methyl-2-pyridyl)pyrimidin-4-yl]pyrimidine-2,4-diamine] | ≤ 0.0316 nM | 25.1 to 158 nM
Cc1cccc(-c2nccc(Nc3ccnc(Nc4ccc(CN5C[C@@H](C)NC[C@@H]5C)cc4)n3)n2)n1 [Compound 344, N2-[4-[[(2S,5R)-2,5-dimethylpiperazin-1-yl]methyl]phenyl]-N4-[2-(6-methyl-2-pyridyl)pyrimidin-4-yl]pyrimidine-2,4-diamine] | 0.0398 to 0.316 nM | 25.1 to 158 nM
Cc1cccc(-c2nccc(Nc3ccnc(Nc4cc(C(=O)O[C@H]5CCN(C)C5)cs4)n3)n2)n1 [Compound 345, [(3S)-1-methylpyrrolidin-3-yl] 5-[[4-[[2-(6-methyl-2-pyridyl)pyrimidin-4-yl]amino]pyrimidin-2-yl]amino]thiophene-3-carboxylate] | 0.0398 to 0.316 nM | 25.1 to 158 nM
Cc1cccc(-c2nccc(Nc3ccnc(Nc4ccc(NCCN5CCN(C(C)C)CC5)cc4)n3)n2)n1 [Compound 346, N2-[4-[2-(4-isopropylpiperazin-1-yl)ethylamino]phenyl]-N4-[2-(6-methyl-2-pyridyl)pyrimidin-4-yl]pyrimidine-2,4-diamine] | 0.0398 to 0.316 nM | 25.1 to 158 nM
CNCCn1cc(-c2ccc(Nc3nccc(Nc4ccnc(-c5cccc(C)n5)n4)n3)cc2)cn1 [Compound 347, N2-(4-(1-(2-(methylamino)ethyl)-1H-pyrazol-4-yl)phenyl)-N4-(2-(6-methylpyridin-2-yl)pyrimidin-4-yl)pyrimidine-2,4-diamine] | 0.0398 to 0.316 nM | 25.1 to 158 nM
COc1cc(N2CCOCC2)ccc1Nc1nccc(Nc2ccnc(-c3cccc(C)n3)n2)n1 [Compound 348, N2-(2-methoxy-4-morpholino-phenyl)-N4-[2-(6-methyl-2-pyridyl)pyrimidin-4-yl]pyrimidine-2,4-diamine] | 3.98 to 31.6 nM | 200 to 1260 nM
Cc1cccc(-c2nccc(Nc3ccnc(Nc4nc(C(=O)N5CCN[C@@H](CO)C5)cs4)n3)n2)n1 [Compound 349, [(3R)-3-(hydroxymethyl)piperazin-1-yl]-[2-[[4-[[2-(6-methyl-2-pyridyl)pyrimidin-4-yl]amino]pyrimidin-2-yl]amino]thiazol-4-yl]methanone] | 0.398 to 3.16 nM | 200 to 1260 nM
Cc1cccc(-c2nccc(Nc3ccnc(Nc4ccc(Cl)c(CN5CCSCC5)c4)n3)n2)n1 [Compound 350, N2-[4-chloro-3-(thiomorpholinomethyl)phenyl]-N4-[2-(6-methyl-2-pyridyl)pyrimidin-4-yl]pyrimidine-2,4-diamine] | 0.398 to 3.16 nM | 25.1 to 158 nM
Cc1cccc(-c2nccc(Nc3ccnc(Nc4ccc(C5COCCN5)cc4)n3)n2)n1 (centres unmarked) [Compound 351, N4-[2-(6-methyl-2-pyridyl)pyrimidin-4-yl]-N2-(4-morpholin-3-ylphenyl)pyrimidine-2,4-diamine] | 0.0398 to 0.316 nM | ≤ 20 nM
CNC1CCN(S(=O)(=O)c2ccc(Nc3nccc(Nc4ccnc(-c5cccc(C)n5)n4)n3)cc2)CC1 [Compound 352, N2-[4-[[4-(methylamino)-1-piperidyl]sulfonyl]phenyl]-N4-[2-(6-methyl-2-pyridyl)pyrimidin-4-yl]pyrimidine-2,4-diamine] | 0.0398 to 0.316 nM | 25.1 to 158 nM
CC(=O)N(CC1CNC1)c1ccc(Nc2nccc(Nc3ccnc(-c4cccc(C)n4)n3)n2)cc1 [Compound 353, N-(azetidin-3-ylmethyl)-N-[4-[[4-[[2-(6-methyl-2-pyridyl)pyrimidin-4-yl]amino]pyrimidin-2-yl]amino]phenyl]acetamide] | 0.0398 to 0.316 nM | 25.1 to 158 nM
Cc1nc(-c2nccc(Nc3ccnc(Nc4ccc(N5CCOCC5)cc4)n3)n2)ccc1F [Compound 354, N4-[2-(5-fluoro-6-methyl-2-pyridyl)pyrimidin-4-yl]-N2-(4-morpholinophenyl)pyrimidine-2,4-diamine] | 0.398 to 3.16 nM | 25.1 to 158 nM
Cc1cccc(-c2nccc(Nc3ccnc(Nc4ccc(NCCN5CCOCC5)cc4)n3)n2)n1 [Compound 355, N4-[2-(6-methyl-2-pyridyl)pyrimidin-4-yl]-N2-[4-(2-morpholinoethylamino)phenyl] pyrimidine-2,4-diamine] | 0.398 to 3.16 nM | 25.1 to 158 nM
Cc1cccc(-c2nccc(Nc3ccnc(Nc4ccc(-c5cnn(CCN(C)C)c5)cc4)n3)n2)n1 [Compound 356, N2-[4-[1-[2-(dimethylamino)ethyl]pyrazol-4-yl]phenyl]-N4-[2-(6-methyl-2-pyridyl)pyrimidin-4-yl]pyrimidine-2,4-diamine] | 0.0398 to 0.316 nM | 25.1 to 158 nM
Cc1cccc(-c2nccc(Nc3ccnc(Nc4cccc(NC(=O)C5CCN(C6CCOCC6)CC5)c4)n3)n2)n1 [Compound 357, N-[3-[[4-[[2-(6-methyl-2-pyridyl)pyrimidin-4-yl]amino]pyrimidin-2-yl]amino]phenyl]-1-tetrahydropyran-4-yl-piperidine-4-carboxamide] | 0.0398 to 0.316 nM | 25.1 to 158 nM
Cc1cccc(-c2nccc(Nc3ccnc(Nc4ccc(C5=CCC(NC(C)C)CC5)cc4)n3)n2)n1 (centres unmarked) [Compound 358, N2-[4-[4-(isopropylamino)cyclohexen-1-yl]phenyl]-N4-[2-(6-methyl-2-pyridyl)pyrimidin-4-yl]pyrimidine-2,4-diamine] | 0.0398 to 0.316 nM | 200 to 1260 nM
Cc1cccc(-c2nccc(Nc3ccnc(Nc4ccc(CN5CCNCC5)cc4)n3)n2)n1 [Compound 359, N4-[2-(6-methyl-2-pyridyl)pyrimidin-4-yl]-N2-[4-(piperazin-1-ylmethyl)phenyl]pyrimidine-2,4-diamine] | 0.0398 to 0.316 nM | 25.1 to 158 nM
Cc1cccc(-c2nccc(Nc3ccnc(Nc4ccc(C)c(CN5CCSCC5)c4)n3)n2)n1 [Compound 361, N4-[2-(6-methyl-2-pyridyl)pyrimidin-4-yl]-N2-[4-methyl-3-(thiomorpholinomethyl)phenyl] pyrimidine-2,4-diamine] | 0.0398 to 0.316 nM | 25.1 to 158 nM
Cc1cccc(-c2nccc(Nc3ccnc(Nc4cccc(CN5CCNCC5)c4)n3)n2)n1 [Compound 362, N4-[2-(6-methyl-2-pyridyl)pyrimidin-4-yl]-N2-[3-(piperazin-1-ylmethyl)phenyl]pyrimidine-2,4-diamine] | 0.0398 to 0.316 nM | 25.1 to 158 nM
